{"source": "patent US10550105B2", "about": "(Ribon Therapeutics Inc., priority 2018, dated 2020)", "key": {"[1]": {"system": "interferon-beta (IFN-β)", "experiment": "Induction of interferon-beta levels in RAW264.7 macrophages in the presence of STING agonist DMXAA (FIG. 3)", "format": "cell-based", "settings": "RAW264.7 mouse macrophages"}, "[2]": {"biological_target": "T1, PARP7 (Homo sapiens (Human), UniProt Q7Z3E1)", "T1 sequence (Q7Z3E1 whole entry)": "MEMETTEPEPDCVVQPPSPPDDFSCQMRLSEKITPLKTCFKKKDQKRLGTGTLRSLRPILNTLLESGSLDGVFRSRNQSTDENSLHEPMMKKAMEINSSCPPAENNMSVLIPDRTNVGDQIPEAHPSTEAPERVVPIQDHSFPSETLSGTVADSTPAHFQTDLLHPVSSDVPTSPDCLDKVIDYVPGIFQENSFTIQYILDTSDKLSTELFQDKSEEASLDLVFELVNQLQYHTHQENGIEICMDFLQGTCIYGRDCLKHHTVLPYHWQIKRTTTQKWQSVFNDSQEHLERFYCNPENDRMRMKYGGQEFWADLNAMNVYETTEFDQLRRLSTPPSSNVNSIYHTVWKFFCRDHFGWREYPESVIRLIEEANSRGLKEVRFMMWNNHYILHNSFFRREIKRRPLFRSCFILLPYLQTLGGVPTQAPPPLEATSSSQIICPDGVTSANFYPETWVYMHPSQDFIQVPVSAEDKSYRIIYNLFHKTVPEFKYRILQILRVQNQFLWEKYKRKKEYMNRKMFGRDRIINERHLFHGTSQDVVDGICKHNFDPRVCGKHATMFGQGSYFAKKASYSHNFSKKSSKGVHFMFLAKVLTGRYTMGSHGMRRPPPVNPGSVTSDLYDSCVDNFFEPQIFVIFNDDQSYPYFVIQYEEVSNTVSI", "experiment": "Enzymatic assay for inhibition of PARP7: TR-FRET displacement of biotinylated Probe A from the TIPARP active site", "format": "binding", "settings": "Table A-1", "how_it_was_run": "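Displacement of biotinylated Probe A from TIPARP was measured as the 665/615 nm time-resolved FRET ratio (excitation 320 nm, 90 μs delay) after a further 30 min at 25 °C. Inhibition across compound concentrations was fitted by dose-response regression, with the Hill slope free or fixed at 1 (3-parameter fit).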"}, "[3]": {"system": "interferon-beta (IFN-β)", "experiment": "Induction of interferon-beta levels in CT26 cells in the presence of STING agonist DMXAA (FIG. 3)", "format": "cell-based", "settings": "CT26 mouse colon cancer cells"}, "[4]": {"system": "NCI-H1373 lung cancer cells", "experiment": "Inhibition of cancer cell growth in NCI-H1373 lung cancer cells (FIG. 2)", "format": "cell-based, human"}, "[5]": {"biological_target": "T1, PARP7", "experiment": "Inhibition of PARP7 (Table A-1)", "format": "biochemical", "settings": "comparison of separated isomers, see Table A-1"}, "[6]": {"system": "NCI-H1648", "experiment": "Growth inhibition of cancer cell lines, 144 hours (CellTiter-Glo)", "format": "cell-based", "settings": "Homo sapiens, lung adenocarcinoma", "description": "(§1) Example C: Inhibition of Cancer Cell Growth by Treatment with PARP7 Inhibitors\n(§2) Table A-2 and Table A-3 (below) represents the concentration that causes 50% growth inhibition (GI50) in a panel of cancer cell lines with Compound 18B and Compound 561. Cells were plated into 384-well plates at a pre-specified density in fetal bovine serum-containing media. Cells were treated with compound or vehicle (DMSO) 24 hrs later, and a day zero plate was collected for analysis. Test compound plates were incubated continuously for 72 hrs (Table A-2) or 144 hours (Table A-3) cell growth was assessed using a luminescent cell viability assay (CellTiter-Glo, Promega). The GI50was determined by correcting for the cell count at time zero (time of treatment) and plotting data as percent growth relative to vehicle-treated cells."}, "[7]": {"system": "H4", "experiment": "Growth inhibition of cancer cell lines, 144 hours (CellTiter-Glo)", "format": "cell-based", "settings": "neuroglioma", "description": "as §1, §2"}, "[8]": {"system": "Panc 03.27", "experiment": "Growth inhibition of cancer cell lines, 144 hours (CellTiter-Glo)", "format": "cell-based", "settings": "Homo sapiens, PANC-03-27, pancreatic adenocarcinoma", "description": "as §1, §2"}, "[9]": {"system": "GCT", "experiment": "Growth inhibition of cancer cell lines, 144 hours (CellTiter-Glo)", "format": "cell-based", "settings": "Homo sapiens, undifferentiated pleiomorphic sarcoma", "description": "as §1, §2"}, "[10]": {"system": "NCI-H1963", "experiment": "Growth inhibition of cancer cell lines, 144 hours (CellTiter-Glo)", "format": "cell-based", "settings": "Homo sapiens, small cell lung carcinoma", "description": "as §1, §2"}, "[11]": {"system": "NCI-H2444", "experiment": "Growth inhibition of cancer cell lines, 144 hours (CellTiter-Glo)", "format": "cell-based", "settings": "Homo sapiens, non-small cell lung carcinoma", "description": "as §1, §2"}, "[12]": {"system": "SNU-840", "experiment": "Growth inhibition of cancer cell lines, 144 hours (CellTiter-Glo)", "format": "cell-based", "settings": "malignant ovarian Brenner tumor", "description": "as §1, §2"}, "[13]": {"system": "HCC827", "experiment": "Growth inhibition of cancer cell lines, 144 hours (CellTiter-Glo)", "format": "cell-based", "settings": "Homo sapiens, lung adenocarcinoma", "description": "as §1, §2"}, "[14]": {"system": "SF126", "experiment": "Growth inhibition of cancer cell lines, 144 hours (CellTiter-Glo)", "format": "cell-based", "settings": "Homo sapiens, SF-126, glioblastoma multiforme", "description": "as §1, §2"}, "[15]": {"system": "T84", "experiment": "Growth inhibition of cancer cell lines, 144 hours (CellTiter-Glo)", "format": "cell-based", "settings": "Homo sapiens, colon adenocarcinoma", "description": "as §1, §2"}, "[16]": {"system": "NCI-H441", "experiment": "Growth inhibition of cancer cell lines, 144 hours (CellTiter-Glo)", "format": "cell-based", "settings": "Homo sapiens, papillary adenocarcinoma of the lung", "description": "as §1, §2"}, "[17]": {"system": "SK-MES-1", "experiment": "Growth inhibition of cancer cell lines, 144 hours (CellTiter-Glo)", "format": "cell-based", "settings": "Homo sapiens, squamous cell lung carcinoma", "description": "as §1, §2"}, "[18]": {"system": "MCAS", "experiment": "Growth inhibition of cancer cell lines, 144 hours (CellTiter-Glo)", "format": "cell-based", "settings": "ovarian mucinous cystadenocarcinoma", "description": "as §1, §2"}, "[19]": {"system": "NCI-H2009", "experiment": "Growth inhibition of cancer cell lines, 144 hours (CellTiter-Glo)", "format": "cell-based", "settings": "Homo sapiens, lung adenocarcinoma", "description": "as §1, §2"}, "[20]": {"system": "CFPAC-1", "experiment": "Growth inhibition of cancer cell lines, 144 hours (CellTiter-Glo)", "format": "cell-based", "settings": "Homo sapiens, pancreatic ductal adenocarcinoma", "description": "as §1, §2"}, "[21]": {"system": "HT-1080", "experiment": "Growth inhibition of cancer cell lines, 144 hours (CellTiter-Glo)", "format": "cell-based", "settings": "Homo sapiens, fibrosarcoma", "description": "as §1, §2"}, "[22]": {"system": "SK-LU-1", "experiment": "Growth inhibition of cancer cell lines, 144 hours (CellTiter-Glo)", "format": "cell-based", "settings": "Homo sapiens, lung adenocarcinoma", "description": "as §1, §2"}, "[23]": {"system": "KMBC-2", "experiment": "Growth inhibition of cancer cell lines, 144 hours (CellTiter-Glo)", "format": "cell-based", "settings": "bladder carcinoma", "description": "as §1, §2"}, "[24]": {"system": "MSTO-211H", "experiment": "Growth inhibition of cancer cell lines, 144 hours (CellTiter-Glo)", "format": "cell-based", "settings": "Homo sapiens, biphasic mesothelioma", "description": "as §1, §2"}, "[25]": {"system": "SW900", "experiment": "Growth inhibition of cancer cell lines, 144 hours (CellTiter-Glo)", "format": "cell-based", "settings": "Homo sapiens, squamous cell lung carcinoma", "description": "as §1, §2"}, "[26]": {"system": "CT26 colon cancer syngeneic model", "experiment": "Inhibition of tumor growth by oral dosing, murine CT26 colon cancer syngeneic model", "format": "in vivo", "settings": "CT26 in BALB/c mice; BID 125-500 mg/kg or QD 500 mg/kg for 21 days; vs vehicle, P<0.0001 (FIG. 7B)", "excerpt": "Example H: Inhibition of Tumor Growth by Oral Dosing with a PARP7 Inhibitor\nThe effect of Compound 561 on tumor growth was studied in a human NCI-H1373 lung cancer xenograft and a murine CT26 colon cancer syngeneic model.\nFor the CT26 study, BALB/c mice were inoculated subcutaneously in the right flank with CT26 cells for tumor development. After 5 days of cell inoculation, mice with 36-79 mm^3 tumors were randomized into treatment groups with mean tumor volumes of 54 mm^3. The treatments were started from the next day post randomization (defined randomization day as day 0) and were treated with vehicle (25 or 50% Labrasol) or Compound 561 BID (2 times a day every 12 hours) at doses ranging from 125-500 mg/kg or QD (once a day) at 500 mg/kg for 21 days by oral gavage or needle subcutaneously. Tumor volumes were determined by manual calipers every 2-3 days. Mean tumor volume and SEM are plotted. BID: twice a day; PO: per oral administration; QD: once a day; SC: per subcutaneous administration. The first two doses for vehicle and Compound 561 500 mg/kg in the QD groups were delivered by subcutaneous injection. […] Statistical significance is calculated using two-way ANOVA followed by Bonferroni post-tests in which the treatment groups were compared to vehicle control (**** P<0.0001)."}, "[27]": {"system": "CT26 colon cancer syngeneic model", "experiment": "Tumor growth in the murine syngeneic model CT26 (FIG. 6A-C, 7B)", "format": "in vivo, mouse", "settings": "once or twice daily administration, FIG. 7B"}, "[28]": {"system": "human NCI-H1373 lung cancer xenograft", "experiment": "Tumor growth in human NCI-H1373 lung cancer xenograft (FIG. 7A)", "format": "in vivo", "settings": "once daily administration"}}}
{"smiles": "N#Cc1ccc(N2CCN(C(=O)c3cccc(OC[C@@H]4c5ccccc5CN4c4cn[nH]c(=O)c4C(F)(F)F)c3)CC2)nc1", "note": "(single isomer, unassigned) [Example 18 Isomer B]", "values": [{"measurement": "interferon-beta (IFN-β) levels", "setting": "[1]", "value": "induction"}, {"measurement": "IC50", "setting": "[2]", "value": "< 100", "unit": "nM"}, {"measurement": "interferon-beta (IFN-β) levels", "setting": "[3]", "value": "induction"}, {"measurement": "growth of NCI-H1373 lung cancer cells", "setting": "[4]", "value": "dose-dependent decrease in growth"}, {"measurement": "relative potency of the enantiomers / diastereomers", "setting": "[5]", "value": "more potent enantiomer"}]}
{"smiles": "C[C@@H](COCCC(=O)N1CCN(c2ncc(C(F)(F)F)cn2)CC1)Nc1cn[nH]c(=O)c1C(F)(F)F", "note": "[Example 561, 5-[[(2S)-1-(3-oxo-3-[4-[5-(trifluoromethyl)pyrimidin-2-yl]piperazin-1-yl]propoxy)propan-2-yl]amino]-4-(trifluoromethyl)-2,3-dihydropyridazin-3-one]", "values": [{"measurement": "GI50", "setting": "[6]", "value": "≥ 1000", "unit": "nM"}, {"measurement": "GI50", "setting": "[7]", "value": "≥ 1000", "unit": "nM"}, {"measurement": "GI50", "setting": "[8]", "value": "< 100", "unit": "nM"}, {"measurement": "GI50", "setting": "[9]", "value": "< 100", "unit": "nM"}, {"measurement": "GI50", "setting": "[10]", "value": "≥ 1000", "unit": "nM"}, {"measurement": "GI50", "setting": "[11]", "value": "≥ 1000", "unit": "nM"}, {"measurement": "GI50", "setting": "[12]", "value": "≥ 1000", "unit": "nM"}, {"measurement": "GI50", "setting": "[13]", "value": "< 100", "unit": "nM"}, {"measurement": "GI50", "setting": "[14]", "value": "≥ 1000", "unit": "nM"}, {"measurement": "GI50", "setting": "[15]", "value": "≥ 1000", "unit": "nM"}, {"measurement": "GI50", "setting": "[16]", "value": "≥ 1000", "unit": "nM"}, {"measurement": "GI50", "setting": "[17]", "value": "≥ 1000", "unit": "nM"}, {"measurement": "GI50", "setting": "[18]", "value": "≥ 1000", "unit": "nM"}, {"measurement": "GI50", "setting": "[19]", "value": "≥ 1000", "unit": "nM"}, {"measurement": "GI50", "setting": "[20]", "value": "100 to 1000", "unit": "nM"}, {"measurement": "GI50", "setting": "[21]", "value": "≥ 1000", "unit": "nM"}, {"measurement": "GI50", "setting": "[22]", "value": "≥ 1000", "unit": "nM"}, {"measurement": "GI50", "setting": "[23]", "value": "≥ 1000", "unit": "nM"}, {"measurement": "GI50", "setting": "[24]", "value": "≥ 1000", "unit": "nM"}, {"measurement": "GI50", "setting": "[25]", "value": "100 to 1000", "unit": "nM"}, {"measurement": "tumor growth", "setting": "[26]", "value": "significantly reduces tumor growth"}, {"measurement": "tumor growth", "setting": "[27]", "value": "significantly reduces tumor growth"}, {"measurement": "tumor growth", "setting": "[28]", "value": "significantly reduces tumor growth"}]}
